Laboratory results reported in patent US8445636B2, “Antimicrobial and anticancer lipopeptides” (Yeda Research & Development Co. Ltd., priority 2003, dated 2013).
Converted amounts (≈) assume the structure as drawn. Where two headings read alike, the source gives them in different places. Non-standard residues stand in square brackets, D forms with d. Residues, ends and D or L forms follow the SMILES beside them. *: point of attachment. Palmitoyl = CCCCCCCCCCCCCCCC(=O)*; Myristoyl = CCCCCCCCCCCCCC(=O)*; Decanoyl = CCCCCCCCCC(=O)*

How the values were obtained:
Type in all cases: cell-based
[1] = Cytotoxicity, XTT viability, non-cancer cells; conditions: mouse, non-cancer cell line, 24 h incubation, read-out: LC50, 3T3
Description: Prostate cancer cell lines (CL1 and 22RV1; ATCC, USA) were grown in RPMI-1640 supplemented with 10% FCS (Biological Industries, Beit Haemek, Israel). N1H-3T3 mouse fibroblast cell line (ATCC, USA) was grown in DMEM supplemented with 10% bovine serum. To test cytotoxicity against the cancer cells, aliquots of medium containing 1×10^4 cells were distributed into a 96-well plate (Falcon). After one day, the media were replaced with 90 μl of fresh media and 10 μl of a solution containing different concentrations of the peptides. The plate was then incubated for 24 h before adding to each well 50 μl of XTT reaction solution (Biological Industries, Beit Haemek, Israel); viability was determined as previously described (Papo et al., (2003) J. Biol. Chem. 278:21018-23). The LC50 (concentration at which 50% of the cells die) for each peptide was obtained from the dose-dependent cell viability curves.

[2] = test system: Aspergillus fumigatus ATCC 26430; experiment: microbe, parasite or virus in culture
[3] = test system: Pseudomonas aeruginosa ATCC 27853
How it was run: (§1)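 LB, pH 7.4 default (5.5 optional, adjusted with HCl/NaOH); inoculum suspension 1×10^6 CFU/ml, added 1:1 to 2-fold lipopeptide dilutions in water; 37° C, 18-20 h; OD600; MIC = 100% inhibition.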

E. coli ATCC 35218 = conditions: ATCC 35218, pH 7.4
How it was run: as §1

E. aerogenes ATCC 35029 = conditions: ATCC 35029, pH 7.4
How it was run: as §1

[4] = test system: Staphylococcus aureus ATCC 6538P
How it was run: as §1

[5] = test system: Cryptococcus neoformans ATCC MYA-422; experiment: microbe, parasite or virus in culture; conditions: for Minimal Inhibitory Concentration, C. neoformans ATCC MYA-422: ATCC MYA-422, pH 7.4
[6] = test system: Candida albicans ATCC 10231; experiment: microbe, parasite or virus in culture
How it was run: (§2)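 Broth microdilution in RPMI 1640/0.165 M MOPS, 1×10^4 CFU/ml inoculum, 2-fold serial lipopeptide dilutions in water, pH 7.4 unless stated (pH 5.5 alternative). Incubated 24–48 h at 35 °C with agitation; growth read at A620. MIC = lowest concentration giving 100% growth inhibition.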

[7] = test system: Aspergillus niger ATCC 9642; conditions: Table 14, lipopeptides vs parent peptides; pH 7.4
Description: The antifungal activity of the lipopeptides was examined in sterile 96-well plates (Nunc F96 microtiter plates) in a final volume of 200 μL as follows: 100 µl of a suspension containing fungi at a concentration of 1×10^4 Colony-Forming Units (CFU)/ml in culture medium (RPMI 1640, 0.165 M MOPS with L-glutamine, without NaHCO3) at pH 7.4 or pH 5.5 (adjustment of the pH was done by diluted solutions of HCl and NaOH) were added to 100 μl of water containing the peptide in serial 2-fold dilutions in water. The fungi were incubated in the presence of the lipopeptides for 24-48 h at 35° C. in a Binder KB115 incubator under agitation. Growth inhibition was determined by measuring the absorbance at 620 nm with a Microplate autoreader E1309 (Bio-Tek Instruments). Antifungal activity is expressed as the minimal inhibitory concentration (MIC), the concentration at which 100% inhibition of fungi growth was observed after the incubation time mentioned above. The fungi used were: Aspergillus niger ATCC 9642, Candida albicans ATCC 10231 and Cryptococcus neoformans ATCC 66031. If not indicated otherwise, the fungi growth was detected at pH 7.4.

B. subtilis ATCC 6051 = conditions: Table 8, lipopeptides vs parent peptides; pH 7.4
[8] = test system: human red blood cells (hRBC); experiment: Hemolytic activity, release of hemoglobin at 540 nm
Description: Fresh human red blood cells (hRBC) with EDTA were rinsed 3 times with PBS (35 mM phosphate buffer/0.15 M NaCl, pH 7.3) by centrifugation for 10 min at 800 g and resuspended in PBS. Peptides dissolved in PBS were then added to 50 μl of a solution of the stock hRBC in PBS to reach a final volume of 100 μl (final erythrocyte concentration, 4% v/v). The resulting suspension was incubated under agitation for 60 min at 37° C. The samples were then centrifuged at 800×g for 10 min. Release of hemoglobin was monitored by measuring the absorbance of the supernatant at 540 nm. Controls for zero hemolysis (blank) and 100% hemolysis consisted of hRBC suspended in PBS and Triton 1%, respectively.

[9] = test system: Enterobacter cloacae ATCC 49141; conditions: Table 4; pH 7.4
How it was run: as §1

[10] = test system: methicilin-resistant Staphylococcus aureus (MRSA) ATCC 700698; conditions: Table 4; pH 7.4
How it was run: as §1

[11] = test system: Acinetobacter baumannii ATCC 19606; conditions: pH 7.4
How it was run: as §1

[12] = test system: Escherichia coli ATCC 25922; conditions: pH 7.4
How it was run: as §1

[13] = test system: Enterococcus faecalis ATCC 29212; conditions: Table 4; pH 7.4
How it was run: as §1

[14] = test system: Aspergillus flavus ATCC 9643; conditions: Table 14, lipopeptides vs parent peptides; pH 7.4
[15] = test system: Cryptococcus neoformans ATCC 66031; experiment: microbe, parasite or virus in culture; conditions: Table 10; pH 7.4
How it was run: as §2

[16] = Table 14, lipopeptides vs parent peptides, pH 7.4
[17] = Table 8, lipopeptides vs parent peptides, pH 7.4
[18] = Table 8, lipopeptides vs parent peptides

SMILES: CCCCCCCCCCCCCC(=O)N[C@H](CC(C)C)C(=O)N[C@@H](CCCCN)C(=O)N[C@@H](CCCCN)C(=O)N[C@H](CC(C)C)C(=O)N[C@H](CC(C)C)C(=O)N[C@@H](CCCCN)C(=O)N[C@@H](CCCCN)C(=O)N[C@H](CC(C)C)C(=O)N[C@H](CC(C)C)C(=O)N[C@@H](CCCCN)C(=O)N[C@@H](CCCCN)C(=O)N[C@H](CC(C)C)C(N)=O [lipopeptide 23, (CH3-(CH2)12-CO-)-D-Leu-Lys-Lys-D-Leu-D-Leu-Lys-Lys-D-Leu-D-Leu-Lys-Lys-D-Leu-NH2] (Myristoyl-[dL]KK[dL][dL]KK[dL][dL]KK[dL]-NH2)
- CC50 at 24 h [1]: 50 µM
- Minimal Inhibitory Concentration, A. fumigatus ATCC 26430 ([2]; ATCC 26430, pH 7.4): 1.56 µM
- Minimal Inhibitory Concentration, P. aeruginosa ATCC 27853 ([3]; ATCC 27853, pH 7.4): 50 µM
- Minimal Inhibitory Concentration, E. coli ATCC 35218 (E. coli ATCC 35218): 50 µM
- Minimal Inhibitory Concentration, E. aerogenes ATCC 35029 (E. aerogenes ATCC 35029): >50 µM
- Minimal Inhibitory Concentration, S. aureus ATCC 6538P ([4]; ATCC 6538, pH 7.4): 50 µM
- Minimal Inhibitory Concentration, C. neoformans ATCC MYA-422 [5]: 0.78 µM
- Minimal Inhibitory Concentration, C. albicans ATCC 10231 ([6]; ATCC 10231, pH 7.4): 1.56 µM

SMILES: CCCCCCCCCCCCCCCC(=O)N[C@@H](CCCCN)C(=O)N[C@@H](C)C(=O)N[C@H](C)C(=O)N[C@H](C)C(=O)N[C@@H](CCCCN)C(=O)N[C@@H](C)C(=O)N[C@@H](C)C(=O)N[C@H](C)C(=O)N[C@@H](CCCCN)C(=O)N[C@H](C)C(=O)N[C@@H](C)C(=O)N[C@@H](CCCCN)C(N)=O [lipopeptide 5, (CH3—(CH2)14—CO—)-Lys-Ala-D-Ala-D-Ala-Lys-Ala-Ala-D-Ala-Lys-D-Ala-Ala-Lys-NH2] (Palmitoyl-KA[dA][dA]KAA[dA]K[dA]AK-NH2)
- Minimal Inhibitory Concentration, Aspergillus niger (ATCC 9642) [7]: 10 µM
- Minimal Inhibitory Concentration, A. fumigatus ATCC 26430 ([2]; Table 10, pH 7.4): 100 µM
- Minimal Inhibitory Concentration, Aspergillus fumigatus (ATCC 26430) [2, 16]: 100 µM
- Minimal Inhibitory Concentration, B. subtilis (ATCC 6051) (B. subtilis ATCC 6051): 3.125 µM
- hemolytic activity ([8]; at concentrations lower than 12 μM, human red blood cells (FIGS. 1-5)): do not exhibit significant hemolytic activity
- hemolytic activity ([8]; at concentrations lower than 12.5 μM, human red blood cells, 1 h): not hemolytic
- Minimal Inhibitory Concentration, E. cloacae [9]: 25 µM
- Minimal Inhibitory Concentration, P. Aeruginosa ([3]; Table 4, pH 7.4): 6.25 µM
- Minimal Inhibitory Concentration, P. aeruginosa ATCC 27853 [3, 17]: 6.25 µM
- Minimal Inhibitory Concentration, S. aureus (MRSA) [10]: 12.5 µM
- Minimal Inhibitory Concentration, A. Baumaannii ([11]; Table 4): 6.25 µM
- Minimal Inhibitory Concentration, A. baumannii ATCC 19606 [11, 18]: 6.25 µM
- Minimal Inhibitory Concentration, S. aureus ([4]; Table 4, pH 7.4): 12.5 µM
- Minimal Inhibitory Concentration, S. aureus ATCC 6538P [4, 17]: 12.5 µM
- Minimal Inhibitory Concentration, E. coli ([12]; Table 4): 6.25 µM
- Minimal Inhibitory Concentration, E. coli (ATCC 25922) [12, 18]: 6.25 µM
- Minimal Inhibitory Concentration, E. faecalis [13]: 12.5 µM
- Minimal Inhibitory Concentration, Aspergillus flavus (ATCC 9643) [14]: 80 µM
- Minimal Inhibitory Concentration, Cryptococcus neoformans (ATCC MYA-422) [5, 16]: 1.56 µM
- Minimal Inhibitory Concentration, C. neoformans ATCC 66031 [15]: 1.56 µM
- Minimal Inhibitory Concentration, C. albicans ATCC 10231 ([6]; Table 10, pH 7.4): 12.5 µM
- MIC ([6]; Table 14, lipopeptides vs parent peptides, pH 7.4, read-out: Minimal Inhibitory Concentration, Candida Albicans (ATCC 10231)): 12.5 µM (≈ 16.7 µg/mL)

SMILES: CCCCCCCCCC(=O)N[C@H](CC(C)C)C(=O)N[C@@H](CCCCN)C(=O)N[C@@H](CCCCN)C(=O)N[C@H](CC(C)C)C(=O)N[C@H](CC(C)C)C(=O)N[C@@H](CCCCN)C(=O)N[C@@H](CCCCN)C(=O)N[C@H](CC(C)C)C(=O)N[C@H](CC(C)C)C(=O)N[C@@H](CCCCN)C(=O)N[C@@H](CCCCN)C(=O)N[C@H](CC(C)C)C(N)=O [lipopeptide 21, (CH3-(CH2)8-CO-)-D-Leu-Lys-Lys-D-Leu-D-Leu-Lys-Lys-D-Leu-D-Leu-Lys-Lys-D-Leu-NH2] (Decanoyl-[dL]KK[dL][dL]KK[dL][dL]KK[dL]-NH2)
- Minimal Inhibitory Concentration, A. fumigatus ATCC 26430 ([2]; ATCC 26430, pH 7.4): 12.5 µM
- Minimal Inhibitory Concentration, P. aeruginosa ATCC 27853 ([3]; ATCC 27853, pH 7.4): 12.5 µM
- Minimal Inhibitory Concentration, E. coli ATCC 35218 (E. coli ATCC 35218): 12.5 µM
- Minimal Inhibitory Concentration, E. aerogenes ATCC 35029 (E. aerogenes ATCC 35029): 50 µM
- Minimal Inhibitory Concentration, S. aureus ATCC 6538P ([4]; ATCC 6538, pH 7.4): 6.25 µM
- Minimal Inhibitory Concentration, C. neoformans ATCC MYA-422 [5]: 1.56 µM
- Minimal Inhibitory Concentration, C. albicans ATCC 10231 ([6]; ATCC 10231, pH 7.4): 25 µM
